In patent publication US5684032A, “Compounds” (SmithKline Beecham Corporation, priority 1995, dated 1997):

Key:
[1] = tested on: recombinant human IL-8 type β receptor (IL-8Rβ, Type II, permissive receptor); assay: [125I] IL-8 receptor binding assay, IL-8Rβ (Type II, permissive) CHO membranes; conditions: IL-8Rβ (type II) receptor binding assay
Excerpt: (§1) [^125 I] IL-8 (human recombinant) was obtained from Amersham Corp., Arlington Heights, Ill., with specific activity 2000 Ci/mmol. All other chemicals were of analytical grade. High levels of recombinant human IL-8 type α and β receptors were individually expressed in Chinese hamster ovary cells as described previously (Holmes, et al., Science, 1991, 253, 1278). The Chinese hamster ovary membranes were homogenized according to a previously described protocol (Kraft, et al., Nature, 1983, 301, 621). Membrane protein concentration was determined using Pierce Co. micro-assay kit using bovine serum albumin as a standard. All assays were performed in a 96-well micro plate format. Each reaction mixture contained ^125 I IL-8 (0.25 nM), 0.5 μg/mL of IL-8Rα or 1.0 μg/mL of IL-8Rβ membranes in 20 mM Bis-Trispropane and 0.4 mM Tris HCl buffers, pH 8.0, containing 1.2 mM MgSO4, 0.1 mM EDTA, 25 mM NaCl and 0.03% CHAPS plus peptide at relevant concentrations. The assay was initiated by addition of ^125 I-IL-8. After 1 hour at room temperature the plate was harvested using a Tomtec 96-well harvester onto a glass fiber filtermat blocked with 1% polyethyleneimine/0.5% BSA and washed 3 times with 25 mM NaCl, 10 mM TrisHCl, 1 mM MgSO4, 0.5 mM EDTA, 0.03% CHAPS, pH 7.4. The filter was then dried and counted on the Betaplate liquid scintillation counter. […]

[2] = tested on: recombinant human IL-8 type α receptor (IL-8Rα, Type I, non-permissive receptor); assay: [125I] IL-8 receptor binding assay, IL-8Rα (Type I, non-permissive) CHO membranes; conditions: IL-8Rα (type I) receptor binding assay
Excerpt: as §1

With `O=C(O)c1c(-c2ccccc2)c2ccccc2n1Cc1ccc(OC(F)(F)F)cc1` the “inhibition of IL-8 binding, result in words” value [1] was “not active” and the “inhibition of IL-8 binding, result in words” value [2] was “not active”.
